From patent US20120136033A1, “Small Molecule Antagonists of Phosphatidylinositol-3,4,5-Triphosphate (PIP3) and Uses Thereof” (President and Fellows of Harvard College, priority 2009, published 2012)

Key:
SUM-159 cells = assay: acquisition of the invasive phenotype by SUM-159 cells; format: cell-based, human; details: reversible
U87MG cells [1] = assay: sensitization of U87MG cells to killing by TRAIL, ATP assay; format: cell-based, human; details: 50 μM PITs or 10 μM Akt inhibitor VIII, 10 ng/ml TRAIL, 48 hr
Protocol: FIG. 10 is a bar graph depicting that PITs, as well as Akt inhibitor VIII, sensitize U87MG cells to killing by TRAIL. U87MG cells were incubated with 50 μM PIT-1, PIT-2, PIT-1i-1 or 10 μM Akt inhibitor VIII in the presence or absence of 10 ng/ml TRAIL for 48 hr, followed by cell viability analysis using ATP assay.
Based on the critical role of PIP3-dependent Akt signaling in the regulation of cell survival, the effect of PIT-1 on the cancer cell viability was tested. Cancer cells were seeded into 96-well plates (white plates for ATP assay; black plates for fluorescent assay; clear plates for MTS assay) at the density of 5-10×10^3 cells per well in 100 μl of the appropriate media. […] For the ATP assay, a luminescence-based commercial kit (CellTiter-Glo, Promega, Madison, Wis.) was used. Thirty microliters of cell lysis/ATP detection reagent was added to each well, mixed for 10 min at room temperature, and the luminescence was measured using a Wallac Victor 3 plate reader (Perkin-Elmer, Wellesley, Mass.). […] Twenty microliters of the combined MTS/PMS solution was added into each well, incubated for 4 hr at 37° C., and the absorbance at 490 nm was measured using a Wallac Victor 3 plate reader. […] Next, 5 μl of 20% (v/v) Triton X-100 solution was added to each well and incubated for 1 hr at 37° C., and the signal was measured again. […]

[2] = test system: AMP-activated protein kinase (AMPK); assay: phosphorylation of AMPK and ACC (metabolic stress); format: cell-based
From the text: (§1) Changes in cell metabolism have emerged in recent years as an important component of PI3K/PIP3/Akt signaling, contributing to the regulation of cell viability and transformation by the PI3K/Akt pathway. Datta S R et al. (1999) Genes Dev 13:2905-27; Elstrom R L et al. (2004) Cancer Res 64:3892-9. Therefore, the possibility that PIT-1 may cause dysregulation of energy homeostasis and induction of the metabolic stress in cancer cells, which may contribute to the PIT-induced cell death, was investigated. […] Hardie D G (2007) Nat Rev Mol Cell Biol 8:774-85. […] Mathew R et al. (2007) Nat Rev Cancer 7:961-7. […] Takeuchi H et al. (2005) Cancer Res 65:3336-46.

[3] = test system: U87MG cells (R130M PTEN vs wt PTEN); assay: Sytox cell death assay, U87MG expressing wild-type or R130M inactive PTEN; format: cell-based, human; details: 25, 50, 100 μM, 48 hr
Protocol: After treatment with 25, 50, or 100 μM PIT-1 for 48 hr, cell death was analyzed using Sytox cell death assay.
Based on the critical role of PIP3-dependent Akt signaling in the regulation of cell survival, the effect of PIT-1 on the cancer cell viability was tested. Cancer cells were seeded into 96-well plates (white plates for ATP assay; black plates for fluorescent assay; clear plates for MTS assay) at the density of 5-10×10^3 cells per well in 100 μl of the appropriate media. Compounds were added at a series of concentrations and incubated for different times. For the ATP assay, a luminescence-based commercial kit (CellTiter-Glo, Promega, Madison, Wis.) was used. Thirty microliters of cell lysis/ATP detection reagent was added to each well, mixed for 10 min at room temperature, and the luminescence was measured using a Wallac Victor 3 plate reader (Perkin-Elmer, Wellesley, Mass.). […] Twenty microliters of the combined MTS/PMS solution was added into each well, incubated for 4 hr at 37° C., and the absorbance at 490 nm was measured using a Wallac Victor 3 plate reader. For the Sytox cell death assay, measuring loss of plasma membrane integrity, cells were incubated with 1 μM Sytox Green reagent (Molecular Probes, Eugene, Oreg.) for 30 min at 37° C. and the fluorescence intensity was measured using Wallac Victor 3 plate reader with excitation at 485 nm and emission at 545 nm. […]

LC3-II = assay: autophagic marker LC3-II in U87MG cells; format: cell-based, human
From the text: as §1

PH123 (Akt PH domain) = molecular target: T1, PH123 (Akt PH domain) (Homo sapiens, UniProt P31749); assay: lipid overlay assay of PIP3/PH123 binding
T1 construct: recombinant 1-123 amino acid N-terminal fragment of human Akt1; made in house; host or cells: E. coli BL21(DE3)

rat aortic rings = assay: rat aortic ring microvessel outgrowth assay; format: cell-based; details: 144 h; rat aortic rings in matrigel, 6 days, 3.125-100 μM; read-out: IC50, microvessel outgrowth in aortic ring sprouting
Protocol: For the aortic ring assay, aortas were isolated from 6-week old Sprague-Dawley rats and immediately transferred to a culture dish with serum-free medium. The fibroadipose tissue around the aortas was carefully removed and the aortas were cut into 1-mm long aortic ring fragments. After three consecutive washes in serum-free medium, the aortic rings were embedded into 70 μl Matrigel in 96-well plate and fed with 100 μl of serum-free M199 medium with or without PIT-1 at different concentrations (3.125-100 μM). The medium was replaced every 24 hr. Phase-contrast images were obtained on day 6, and the numbers of microvessel outgrowths per ring were counted.
Microvessel growth from rat aorta sections is the result of a combination of endothelial cell proliferation, migration, and tube formation, and thus provides a close approximation of in vivo angiogenesis. For this experiment the rat aortic rings were embedded in matrigel and then were treated with PIT-1 (3.125-100 μM) for 6 days, followed by counting the number of microvessel outgrowths under microscope.

[4] = molecular target: T2, R86A mutant of the Akt PH domain (Homo sapiens, UniProt P31749, R86A); assay: NMR HSQC, R86A mutant of the PH domain; format: binding
T2 construct: Human Akt PH domain a.a; 1-123; His6 (N); made in house; host or cells: E. coli BL21(DE3)

U87MG cells [5] = assay: long-term colony formation by U87MG cells; format: cell-based, human
Bcl-xL = Bcl-xL (Homo sapiens, UniProt Q07817); assay: NMR HSQC specificity control, Bcl-xL; format: binding
[6] = stability in dimethylsulfoxide; format: physicochemical

T2 sequence (P31749 1-123 R86A): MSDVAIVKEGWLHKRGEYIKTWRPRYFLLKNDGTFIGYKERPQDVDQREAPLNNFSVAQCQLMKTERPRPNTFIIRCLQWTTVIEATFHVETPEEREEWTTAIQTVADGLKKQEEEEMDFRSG
Chain of Bcl-xL (Q07817 whole entry, species assumed): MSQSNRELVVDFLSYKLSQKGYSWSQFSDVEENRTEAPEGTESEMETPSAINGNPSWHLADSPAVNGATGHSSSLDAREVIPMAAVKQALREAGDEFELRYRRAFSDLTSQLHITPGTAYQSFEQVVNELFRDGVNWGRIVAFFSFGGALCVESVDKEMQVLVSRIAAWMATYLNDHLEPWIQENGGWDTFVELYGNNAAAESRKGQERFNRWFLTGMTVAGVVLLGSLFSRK
T1 sequence (P31749 1-123): as the sequence (P31749 1-123 R86A) above, with A86R counted along it

SMILES | acquisition of the invasive phenotype by SUM-159 cells (SUM-159 cells) | sensitization of U87MG cells to killing by TRAIL (U87MG cells [1]) | phosphorylation of AMPK [2] | phosphorylation of acetyl-CoA carboxylase (ACC) [2] | toxicity in U87MG cells lacking PTEN activity compared to wt PTEN-expressing cells [3] | expression of autophagic marker LC3-II (LC3-II) | effect on PIP3/PH123 binding, lipid overlay (PH123 (Akt PH domain)) | IC50 (rat aortic rings) [µM] | effect on HSQC of R86A mutant PH domain [4] | long-term colony formation by U87MG cells (U87MG cells [5]) | changes in HSQC spectrum of Bcl-xL (Bcl-xL) | stability in dimethylsulfoxide (DMSO) [6]
O=C(NC(=S)Nc1cc([N+](=O)[O-])cc(Cl)c1O)c1ccccc1 [PIT-1] | blocked acquisition of the invasive phenotype | substantially sensitized | significant increase in the phosphorylation | Increased phosphorylation | more pronounced | prominently increased | concentration-dependent inhibitory effect | 4.58 | had no effect | suppressed long-term colony formation | did not elicit any changes | –
O=C1NC(=S)S/C1=C\c1cc(O)c([N+](=O)[O-])cc1Cc1ccccc1 [PIT-2] | – | – | – | – | – | – | – | – | – | – | – | limited stability
